Activity calls are given as the source filed them. The calls are words filed in the database; no cut-off is given here.

For series [1], the system named is 3T3-L1. Briefly: Inhibition of GR-alpha in mouse 3T3-L1 cells assessed as reduction in GR-alpha interaction with Dexras1 at 1 uM incubated for 8 hrs by ChIP assay. Format: cell-based.
Series [2] concerns 3T3-L1. Briefly: Inhibition of cell differentiation in mouse 3T3-L1 cells assessed as reduction in adipogenic cocktail-induced triglyceride levels at 1 uM incubated for 0 to 3 days by GPO-POD assay. Conditions: time 0-3 day. The format is functional, cell-based.
The subject of series [3] is 3T3-L1. Briefly: Inhibition of GR-alpha in mouse 3T3-L1 cells assessed as reduction in adipogenic cocktail-induced Dexras1 mRNA expression incubated for 0.5 to 24 hrs by RT-qPCR analysis. The format is cell-based. The following applies: time 0.5-24 hrs.
Series [4] concerns 3T3-L1. Briefly: Inhibition of adipogenic cocktail-induced C/EBP-delta mRNA expression in mouse 3T3-L1 cells at 1 to 10 uM incubated for 0.5 hrs by RT-qPCR analysis. The format is functional, cell-based. The following applies: dose 1-10 µM. (In general: Quantitative PCR measures a nucleic acid by following its amplification.)
Series [5] deals with 3T3-L1. Briefly: Inhibition of adipogenic cocktail-induced GR-alpha protein expression in mouse 3T3-L1 cells at 1 to 10 uM incubated for 4 to 24 hrs by Western blot analysis. The format is functional, cell-based. Conditions: dose 1-10 µM, time 4-24 hrs. In general terms: In western blotting, separated proteins are transferred to a membrane and probed.
Series [6] deals with 3T3-L1. Briefly: Inhibition of adipogenic cocktail-induced C/EBPalpha mRNA expression in mouse 3T3-L1 cells incubated for 24 hrs by RT-qPCR analysis. Format: functional, cell-based.
The test system of series [7] is 3T3-L1. Briefly: Inhibition of adipogenic cocktail-induced GR-beta nuclear translocation in mouse 3T3-L1 cells at 1 uM after 8 hrs by Western blot analysis. Format: cell-based.
Series [8] has as its system 3T3-L1. Briefly: Inhibition of cell differentiation in mouse 3T3-L1 cells assessed as reduction in adipogenic cocktail-induced triglyceride levels at 1 uM incubated for 0 to 9 days by GPO-POD assay. The format is functional, cell-based. Conditions: time 0-9 day.
Series [9] concerns 3T3-L1. Briefly: Inhibition of adipogenic cocktail-induced C/EBP-beta mRNA expression in mouse 3T3-L1 cells at 1 to 10 uM incubated for 0.5 hrs by RT-qPCR analysis. The format is functional, cell-based. Conditions: dose 1-10 µM.
The test system of series [10] is 3T3-L1. Briefly: Inhibition of adipogenic cocktail-induced GR-alpha nuclear translocation in mouse 3T3-L1 cells at 1 uM after 8 hrs by Western blot analysis. The format is cell-based.
The subject of series [11] is 3T3-L1. Briefly: Inhibition of adipogenic cocktail-induced PPARgamma mRNA expression in mouse 3T3-L1 cells incubated for 24 hrs by RT-qPCR analysis. Format: functional, cell-based.
The subject of series [12] is 3T3-L1. Briefly: Toxicity in mouse 3T3-L1 cells assessed as reduction in cell viability at 10 uM incubated for 6 days by LDH release assay. Format: cell-based. Conditions: 3t3-l1, 144 h, time 6 day.
Series [13] has as its system 3T3-L1. Briefly: Inhibition of GR-alpha in mouse 3T3-L1 cells assessed as reduction in methylprednisolone-induced Dexras1 mRNA expression at 1 uM incubated for 4 hrs by RT-qPCR analysis. The format is cell-based.
The test system of series [14] is HepG2. Briefly: Lipid lowering activity in human HepG2 cells assessed as reduction in high-glucose induced triglyceride levels at 1 uM incubated for 6 days in presence of Dexras1 siRNA by GPO-POD assay. The format is functional, cell-based. The following applies: time 6.0 day.
Series [15] deals with 3T3-L1. Briefly: Inhibition of methylprednisolone-induced PPARgamma mRNA expression in mouse 3T3-L1 cells at 1 uM by RT-qPCR analysis. Format: functional, cell-based.
Series [16] has as its system 3T3-L1. Briefly: Inhibition of GR-alpha in mouse 3T3-L1 cells assessed as reduction in adipogenic cocktail-induced Dexras1 mRNA expression at 1 uM incubated for 4 hrs by RT-qPCR analysis. The format is cell-based.
Series [17] relates to 3T3-L1. Briefly: Lipid lowering activity in mouse 3T3-L1 cells assessed as reduction in methylprednisolone-induced triglyceride levels at 1 uM incubated for 6 days by GPO-POD assay. Format: functional, cell-based. The following applies: time 6.0 day.

Take `CC1=C[C@@H]2[C@@H](C1=O)[C@H](O)C(C)=C[C@H]1[C@@H]3C(C)(C)[C@]3(OC(=O)C(C)C)[C@H](OC(=O)c3ccccc3)[C@@H](C)[C@]21O`: the inhibition entry in series [1], in series [2] and in [10] was “Active” in each case. Further, the inhibition entry in [3], in series [6] and in series [11] was “Dose-dependent effect” each time. The inhibition result in series [4], in series [5], in [7], in series [8] and in series [9] was “inactive” in each case. Moreover, the Activity result in series [12] was “Non-Toxic”.
On to `CC(=O)O[C@@H]1C(C)=C[C@H]2[C@@H]3C(C)(C)[C@]3(OC(=O)C(C)C)[C@H](OC(=O)c3ccccc3)[C@@H](C)[C@]2(O)[C@@H]2C=C(C)C(=O)[C@@H]12`, for which the inhibition entry in series [1], in series [2], in [13], in [14], in series [15] and in series [16] was “Active” throughout. Besides, the inhibition result in [17] and in series [10] was “Active” in each case. For the same compound, the inhibition result in [3], in series [6] and in [11] was “Dose-dependent effect” in each case. Also, the inhibition entry in series [4], in [5], in series [7], in series [8] and in series [9] was “inactive” throughout. For the same compound, the Activity entry in [12] is “Non-Toxic”.

(Values after ChEMBL document CHEMBL4680113, “Tigliane Diterpenoids as a New Type of Antiadipogenic Agents Inhibit GRα-Dexras1 Axis in Adipocytes” (J Med Chem, 2019).)
